{
  "source": "paper PMC6832651",
  "about": "“Design, Synthesis and Investigation of the Potential Anti-Inflammatory Activity of 7-O-Amide Hesperetin Derivatives” (Molecules, 2019)",
  "key": {"[1]": {"test_system": "NF-κB signal pathway", "assay": "Western blotting of NF-κB signal pathway in LPS-induced RAW264.7 cells", "type": "cell-based, mouse", "text": "Stimulation with LPS leads to the activation of nuclear factor-kappa B (NF-κB), which is a well-known transcription factor that positively regulates inflammation. When NF-κB activation is stimulated by LPS, inhibitor of NF-κB (IκB) protein phosphorylated and degraded frees NF-κB p65 subunit from sequestration, allowing it to translocate to the nucleus, bind to target promoters, and turn on the transcriptions of inflammation genes including TNF-α and IL-6. Therefore, Western blotting was used to examine the effects of compound 4d on LPS induced transcriptional activity of NF-κB in RAW264.7 cells.\nAfter the treatment with LPS ([…]) in the presence different concentration gradient or absence of compounds, removed culture supernatants, and cells were collected and lysed with RIPA lysis buffer (Beyotime, Shanghai, China) and phosphatase inhibitors (Beibokit, Bestbio, Shanghai, China). After centrifugation (4 °C, 30 min, 12,000 rpm, Beckman Coulter, Inc., Fullerton, CA, USA), the total protein concentration was determined using BCA Protein Assay Kit (Beyotime, Shanghai, China). Lysates containing […] of total proteins were fractionated on SDS polyacrylamide gel and transferred to a polyvinylidene difluoride membranes (PVDF) (Merck Millipore, Tullagreen Carrigtwohill, Ireland). Membranes were blocked with 5% skim milk or 3% BSA (Albumin Bovine V, Sigma) in TBST and incubated at 4 °C overnight with their respective primary antibody: β-actin (1:1000 dilution; Abcam, Cambridge, MA, USA), iNOS (1:1000 dilution; Abcam, Cambridge, MA, USA), COX-2 (1:1000 dilution; CST, Danvers, MA, USA ), NF-κB (1:1000 dilution; CST, Danvers, MA, USA). After washing three times with TBST, membranes were incubated with secondary antibody for 1 h in room temperature on the shaker. Protein bands were visualized by the ultra-sensitive enhanced chemiluminescent (ECL) substrate (ECL-plus, Thermo Scientific, Rockford, IL, USA), after washing three times with TBST [34]."}, "[2]": {"test_system": "LPS-induced NO production in RAW264.7 cells", "assay": "Inhibition of LPS-induced NO production (Griess reagent)", "type": "cell-based, mouse", "conditions": "for LPS-induced NO release: LPS-stimulated, result in words; for IC50: Mus musculus, 1 h pretreatment, then LPS 24 h, mean ± SD (n = 3)", "procedure": "NO is an important inflammatory mediator and is overproduced and secreted out of mouse macrophages in response to bacterial lipopolysaccharide. To evaluate the anti-inflammatory activity of hesperetin derivatives, the secretion level of NO was detected in the medium of RAW264.7 cells after LPS stimulated with Griess reagent. Before the cells were treated with LPS (1 μg/mL) for 24 h, pretreatment with the compounds for 1 hour. […] All hesperetin derivatives could decrease the release of NO induced by LPS. […] While extended the length of the amide side chain and the inhibitory activities increased (4d > 4c > 4a; 4e > 4b). […] On the other hand, the cavity was medium-sized, large enough to accommodate cyclopentyl and propyl groups, but not enough to accommodate cyclohexyl and butyl ones (4a < 4b < 4d > 4f; 4k > 4l).\nNitrite levels were determined using the Griess method for NO has a short half-life and is oxidized to stable nitrite. RAW 264.7 cells were plated at a density of 2 × 10^5 per well in a 24-well culture plate and incubated in a 37 °C humidified incubator (5% CO2). After overnight Cultured, discarded the supernatant, added pre-configured compounds of different concentrations to the 24-well plate, and added the same one-thousandth of the DMSO solvent as the control to the experimental group for 1 h. Then LPS was added to experimental and model groups at a concentration of […] for 24 h compared to vehicle control. Following treatment, media was collected and centrifuged at 2000 rpm for 5 min to remove cellular debris. The medium from treated cells was removed and placed into a 96-well plate (50 µL per well) and was measured in culture supernatant using Griess reagent at 540 nm. The IC50 values of compounds were calculated by SPSS23."}, "[3]": {"test_system": "COX-2", "assay": "Western blotting of COX-2 expression in LPS-induced RAW264.7 cells", "type": "cell-based, mouse", "conditions": "compound 5, 10, 20 μM (Figure 3)", "procedure": "(§1) In the process of inflammation, inducible nitric oxide synthase enzymes (iNOS) are induced to overexpression in inflammatory cells when exposed to pro-inflammatory cytokines, which further leads to excessive production of NO. The inhibition of NO production by compound 4d may be correlated with its suppressive effect on LPS-induced iNOS. Thus, the inhibitory effects of compound 4d on LPS-mediated expressions of iNOS were analyzed by western blotting. Nitric oxide synthase (iNOS) protein levels were analyzed after exposure to LPS for 24 h in the presence or absence of compound 4d (5, 10, 20 μM). […] Cyclooxygenase-2 (COX-2) is an important indicator of anti-inflammatory inhibitors, maintaining a low level in normal tissues. […] Bay 11-7082 (5 μM) used as a positive control.\n(§2) After the treatment with LPS ([…]) in the presence different concentration gradient or absence of compounds, removed culture supernatants, and cells were collected and lysed with RIPA lysis buffer (Beyotime, Shanghai, China) and phosphatase inhibitors (Beibokit, Bestbio, Shanghai, China). After centrifugation (4 °C, 30 min, 12,000 rpm, Beckman Coulter, Inc., Fullerton, CA, USA), the total protein concentration was determined using BCA Protein Assay Kit (Beyotime, Shanghai, China). […]"}, "[4]": {"test_system": "IL-6", "assay": "IL-6 level in medium of LPS-induced RAW264.7 cells (ELISA)", "type": "cell-based, mouse", "conditions": "10 μM compound (Figure 2A-C)", "text": "(§3) When inflammation occurs, LPS-activated macrophages produce a variety of inflammatory cytokines, including TNF-α, interleukins (ILs), and nitric oxide (NO), which show a host shielding effect and also accelerate the occurrence of the inflammatory response during inflammatory situations. To evaluate the anti-inflammatory activity of hesperetin derivatives, the levels of TNF-α, IL-6 and IL-1β in the medium of LPS-induced macrophage cells were detected by enzyme linked immunosorbent assay (ELISA). […] Later, we will select one of them as lead compound and modify the structure at the 3’-OH, 5-OH and 4-carbonyl positions. […] Compounds 4d (MW = 401) and 4k (MW = 427) have similar structures and should have the same mechanism. Therefore, compound 4d with lower molecular weight was selected to further explore the mechanism(s) of the anti-inflammatory effect.\n(§4) RAW264.7 cells (2 × 10^5 cells/well) were cultured in 24-well plate and pretreated with 10 μM of compounds for 1 h. And then stimulated with LPS, […], for 24 h. The cell culture supernatant were collected and the levels of TNF-α, IL-6 and IL-1β were determined using the ELISA kit (Elabscience, Wuhan, China). The optical density (OD) was measured at 540 nm. The results were analyzed using Origin Pro 8 (OriginLab, Northampton, MA, USA)."}, "[5]": {"test_system": "TNF-α", "assay": "TNF-α level in medium of LPS-induced RAW264.7 cells (ELISA)", "type": "cell-based, mouse", "conditions": "10 μM compound (Figure 2A-C)", "text": "as §3, §4"}, "[6]": {"test_system": "iNOS", "assay": "Western blotting of iNOS expression in LPS-induced RAW264.7 cells", "type": "cell-based, mouse", "conditions": "LPS 24 h, compound 5, 10, 20 μM (Figure 3)", "procedure": "as §1, §2"}, "[7]": {"test_system": "LPS-induced NO production in RAW264.7 cells", "assay": "Inhibition of LPS-induced NO production (Griess reagent)", "type": "cell-based", "conditions": "Mus musculus, 10 μM compound, 1 h pretreatment, then LPS (1 μg/mL) 24 h, mean ± SD (n = 3)"}, "[8]": {"test_system": "RAW264.7 cells", "assay": "MTT cell viability / cytotoxicity assay", "type": "cell-based, mouse", "conditions": "concentrations up to 100 μM, MTT (Figure 1)", "procedure": "Compounds 4a–4l, 5a–5b, 6a–6f, 7a–7c were assessed for toxicity against RAW264.7 cell lines using the 3-(4,5-dimethylthiazol-2-yl)-2,5-diphenyltetrazolium bromide (MTT) assay. After 40 μM treatment, the cell viability of all of the hesperetin derivatives was more than 90%. It was thus shown that the anti-inflammatory activities of hesperetin derivatives were not due to their cytotoxicity. In subsequent anti-inflammation studies, the highest concentration of hesperetin derivatives was set below 40 µM.\nCytotoxicity and cell viability was evaluated by a MTT (Sigma, Shanghai, China) assay using a method similar to the one described above. Cells were inoculated at a density of 7.0 × 10^3 cells/well into 96-well plate and cultured at 37 °C for 12 h. […] After that, MTT dissolved in phosphate buffered saline (PBS) and was added to the culture medium to reach a final concentration of 0.5 mg/mL and incubated for another 4 h. The media was removed and 200 μL of DMSO was added and incubated for 30 min. Finally, the cell viability (%) was calculated based on the absorbance measured at the wavelength of 490 nm and measured using a microplate reader (Synergy HTX, Biotek, Winowski, VT, USA). The cell viability were calculated by GraphPad Prism 6 (GraphPad, San Diego, CA, USA)."}, "[9]": {"test_system": "IL-1β", "assay": "IL-1β level in medium of LPS-induced RAW264.7 cells (ELISA)", "type": "cell-based, mouse", "conditions": "10 μM compound (Figure 2A-C)", "text": "as §3, §4"}, "[10]": {"design": "method as in PMID 17047689", "conditions": "cited from earlier work"}, "[11]": {"design": "method as in PMID 19629709", "conditions": "cited from earlier work"}},
  "note": "Where two headings read alike, the source gives them in different places.",
  "data": [
    {"smiles": "CCCNC(=O)COc1cc(O)c2c(c1)O[C@H](c1ccc(OC)c(O)c1)CC2=O", "note": "[Compound 4d, 7-O-(2-(Propylamino)-2-oxoethyl)hesperetin]", "values": [
      {"measurement": "phosphorylation of IκBα", "setting": "[1]; LPS-induced RAW264.7 cells (Figure 4)", "value": "markedly decreased"},
      {"measurement": "protein expressions of NF-κB and IκBα", "setting": "[1]; LPS-induced RAW264.7 cells, compared with the LPS induced group (Figure 4)", "value": "down-regulated"},
      {"measurement": "LPS-induced NF-κB p65 nuclear translocation", "setting": "[1]; RAW264.7 cells, pretreatment 5, 10, 20 µM", "value": "concentration-dependently reversed"},
      {"measurement": "LPS-induced NO release", "setting": "[2]", "value": "significantly alleviated the increase of LPS-induced NO release"},
      {"measurement": "IC50", "setting": "[2]", "value": "19.3 ± 0.47", "unit": "µM"},
      {"measurement": "expression level of COX-2", "setting": "[3]", "value": "capable of reducing the expression level of COX-2 in a concentration-dependent way"},
      {"measurement": "inhibitory effect on IL-6 production", "setting": "[4]", "value": "greater inhibitory effects than indomethacin (Ind) and celecoxib (Cel)"},
      {"measurement": "melting point", "value": "135.5 to 137.7", "unit": "°C"},
      {"measurement": "inhibitory effect on TNF-α production", "setting": "[5]", "value": "greater inhibitory effects than indomethacin (Ind) and celecoxib (Cel)"},
      {"measurement": "expression level of iNOS", "setting": "[6]", "value": "significantly decreased the expression level of iNOS induced by LPS in a dose-dependent manner"},
      {"measurement": "inhibition at 10 µM", "setting": "[7]", "value": "38.2 ± 1.13", "unit": "%"},
      {"measurement": "cytotoxicity", "setting": "[8]", "value": "no significant cytotoxicity"},
      {"measurement": "inhibitory effect on IL-1β production", "setting": "[9]", "value": "greater inhibitory effects than indomethacin (Ind) and celecoxib (Cel)"}
    ]},
    {"smiles": "COc1ccc([C@@H]2CC(=O)c3c(O)cc(OCC(=O)NC4CCCC4)cc3O2)cc1O", "note": "[Compound 4k, 7-O-(2-(Cyclopentylamino)-2-oxoethyl)hesperetin]", "values": [
      {"measurement": "LPS-induced NO release", "setting": "[2]", "value": "significantly alleviated the increase of LPS-induced NO release"},
      {"measurement": "IC50", "setting": "[2]", "value": "16.6 ± 0.85", "unit": "µM"},
      {"measurement": "inhibitory effect on IL-6 production", "setting": "[4]", "value": "greater inhibitory effects than indomethacin (Ind) and celecoxib (Cel)"},
      {"measurement": "melting point", "value": "187.5 to 190", "unit": "°C"},
      {"measurement": "inhibitory effect on TNF-α production", "setting": "[5]", "value": "greater inhibitory effects than indomethacin (Ind) and celecoxib (Cel)"},
      {"measurement": "inhibition at 10 µM", "setting": "[7]", "value": "40.9 ± 0.64", "unit": "%"},
      {"measurement": "inhibitory effect on IL-1β production", "setting": "[9]", "value": "greater inhibitory effects than indomethacin (Ind) and celecoxib (Cel)"}
    ]},
    {"smiles": "COc1ccc([C@@H]2CC(=O)c3c(O)cc(O)cc3O2)cc1O", "note": "[hesperetin]", "values": [
      {"measurement": "elimination half-life (t1/2)", "setting": "[10]", "value": 1.78, "unit": "h"},
      {"measurement": "elimination half-life (t1/2)", "setting": "[11]", "value": 3.12, "unit": "h"}
    ]}
  ]
}
